Test results published in article PMC3582025 (European journal of pharmacology, 2012).
Several values for one entry are separate records, joined by “and”; a condition that tells them apart may be missing. Identical values can stand only once. Counter-ions that a name gives are not always drawn. Like-named read-outs stand apart in the source and are kept apart here.

Legend:
SERT = SERT (Homo sapiens, UniProt P31645); test: Radioligand binding assay
[1] = target: dopamine transporter (DAT) (Homo sapiens, UniProt Q01959); test: cell-based
[2] = target: norepinephrine transporter (NET) (Homo sapiens, UniProt P23975); test: cell-based; assay type: cell-based
[3] = target: 5-HT2B serotonin receptors (Homo sapiens, UniProt P41595); test: Radioligand binding assay; settings: for Ki: 5-HT2B receptor affinity Ki
[4] = target: serotonin transporter (SERT) (Homo sapiens, UniProt P31645); test: cell-based; assay type: cell-based
[5] = target: human cloned 5-HT2B receptor (Homo sapiens, UniProt P41595); test: 5-HT2B functional assay, intracellular Ca++ mobilization; assay type: cell-based; settings: HEK-T cells
α2C adrenoceptors = target: T1, α2C adrenoceptors (Homo sapiens, UniProt P18825); test: Radioligand binding assay; settings: α2C adrenoceptor affinity Ki
T1 sequence (P18825 1-462): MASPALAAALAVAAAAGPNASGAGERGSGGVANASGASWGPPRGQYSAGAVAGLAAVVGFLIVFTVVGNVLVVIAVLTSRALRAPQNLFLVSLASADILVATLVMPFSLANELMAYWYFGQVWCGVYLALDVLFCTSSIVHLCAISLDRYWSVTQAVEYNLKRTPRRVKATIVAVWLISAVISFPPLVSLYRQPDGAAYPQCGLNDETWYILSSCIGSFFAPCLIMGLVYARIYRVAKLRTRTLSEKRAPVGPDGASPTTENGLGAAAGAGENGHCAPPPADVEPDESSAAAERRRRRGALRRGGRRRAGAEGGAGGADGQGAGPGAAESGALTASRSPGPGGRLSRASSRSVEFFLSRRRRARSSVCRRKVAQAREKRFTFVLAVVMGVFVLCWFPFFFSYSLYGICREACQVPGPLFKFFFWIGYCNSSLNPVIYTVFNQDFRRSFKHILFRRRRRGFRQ

DAT = DAT (Homo sapiens, UniProt Q01959); test: Radioligand binding assay
[6] = tested on: serotonin uptake in rat brain synaptosomes; settings: ref Martinez-Clemente et al (2011); cited from earlier work
[7] = tested on: dopamine uptake in rat brain synaptosomes; settings: ref Martinez-Clemente et al (2011); cited from earlier work
NET = NET (Homo sapiens, UniProt P23975); test: Radioligand binding assay
[8] = DAT Ki, inhibition of transporter uptake activity
[9] = DAT pKi (mean +/- S.E.M), inhibition of transporter uptake activity, N=3
[10] = NET Ki, inhibition of transporter uptake activity
[11] = SERT Ki, inhibition of transporter uptake activity
[12] = inhibition of transporter uptake activity
[13] = NET pKi (mean +/- S.E.M), inhibition of transporter uptake activity, N=3
[14] = SERT pKi (mean +/- S.E.M), inhibition of transporter uptake activity, N=3
[15] = inhibition of transporter uptake activity, N=3

Sequence of serotonin transporter (SERT) (P31645 whole entry): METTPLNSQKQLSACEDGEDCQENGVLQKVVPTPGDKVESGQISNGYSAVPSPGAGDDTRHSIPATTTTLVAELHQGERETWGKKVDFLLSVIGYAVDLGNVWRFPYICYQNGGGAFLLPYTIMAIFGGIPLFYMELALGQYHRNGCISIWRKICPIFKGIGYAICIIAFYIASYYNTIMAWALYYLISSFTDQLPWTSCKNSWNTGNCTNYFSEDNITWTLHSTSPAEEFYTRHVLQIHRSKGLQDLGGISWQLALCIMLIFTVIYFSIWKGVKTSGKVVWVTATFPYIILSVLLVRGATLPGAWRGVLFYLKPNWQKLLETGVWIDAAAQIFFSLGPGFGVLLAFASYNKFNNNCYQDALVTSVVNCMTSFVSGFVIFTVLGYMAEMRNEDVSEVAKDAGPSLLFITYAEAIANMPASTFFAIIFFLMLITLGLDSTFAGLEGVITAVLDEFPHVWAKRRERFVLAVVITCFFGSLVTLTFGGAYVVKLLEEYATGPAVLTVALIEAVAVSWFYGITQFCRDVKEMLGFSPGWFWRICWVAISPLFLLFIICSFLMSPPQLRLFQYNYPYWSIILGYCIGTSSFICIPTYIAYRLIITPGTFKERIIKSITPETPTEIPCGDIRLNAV
Sequence of 5-HT2B serotonin receptors (P41595 whole entry): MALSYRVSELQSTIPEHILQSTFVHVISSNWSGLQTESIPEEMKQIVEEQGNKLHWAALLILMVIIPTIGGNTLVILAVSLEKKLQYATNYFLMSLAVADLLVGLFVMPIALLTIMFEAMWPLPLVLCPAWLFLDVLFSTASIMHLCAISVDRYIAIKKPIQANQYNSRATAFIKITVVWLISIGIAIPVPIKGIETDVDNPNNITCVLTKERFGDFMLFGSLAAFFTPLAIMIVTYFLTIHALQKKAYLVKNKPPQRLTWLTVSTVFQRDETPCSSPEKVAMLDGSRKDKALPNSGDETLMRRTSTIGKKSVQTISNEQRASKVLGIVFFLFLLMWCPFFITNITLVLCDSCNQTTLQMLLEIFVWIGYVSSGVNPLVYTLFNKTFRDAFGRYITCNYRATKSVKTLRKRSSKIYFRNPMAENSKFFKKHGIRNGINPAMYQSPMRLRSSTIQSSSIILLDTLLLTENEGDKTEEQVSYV
Sequence of human cloned 5-HT2B receptor (P41595 whole entry): as above
Sequence of dopamine transporter (DAT) (Q01959 whole entry): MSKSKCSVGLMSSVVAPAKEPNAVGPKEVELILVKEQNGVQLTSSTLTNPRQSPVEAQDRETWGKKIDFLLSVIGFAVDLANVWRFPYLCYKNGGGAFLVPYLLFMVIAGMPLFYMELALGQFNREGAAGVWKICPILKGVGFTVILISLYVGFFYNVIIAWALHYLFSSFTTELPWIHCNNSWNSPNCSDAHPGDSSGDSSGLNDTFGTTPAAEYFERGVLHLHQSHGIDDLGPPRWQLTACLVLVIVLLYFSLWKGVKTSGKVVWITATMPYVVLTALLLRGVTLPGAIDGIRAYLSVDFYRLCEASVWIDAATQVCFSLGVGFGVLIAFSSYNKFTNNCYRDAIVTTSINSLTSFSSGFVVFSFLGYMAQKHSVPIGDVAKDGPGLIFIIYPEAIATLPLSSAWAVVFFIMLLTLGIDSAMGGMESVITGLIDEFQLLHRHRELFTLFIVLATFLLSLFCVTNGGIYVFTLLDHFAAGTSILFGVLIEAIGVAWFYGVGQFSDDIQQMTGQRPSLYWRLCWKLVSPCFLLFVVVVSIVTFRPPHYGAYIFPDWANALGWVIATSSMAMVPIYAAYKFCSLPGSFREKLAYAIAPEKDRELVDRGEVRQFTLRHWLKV
Sequence of norepinephrine transporter (NET) (P23975 whole entry): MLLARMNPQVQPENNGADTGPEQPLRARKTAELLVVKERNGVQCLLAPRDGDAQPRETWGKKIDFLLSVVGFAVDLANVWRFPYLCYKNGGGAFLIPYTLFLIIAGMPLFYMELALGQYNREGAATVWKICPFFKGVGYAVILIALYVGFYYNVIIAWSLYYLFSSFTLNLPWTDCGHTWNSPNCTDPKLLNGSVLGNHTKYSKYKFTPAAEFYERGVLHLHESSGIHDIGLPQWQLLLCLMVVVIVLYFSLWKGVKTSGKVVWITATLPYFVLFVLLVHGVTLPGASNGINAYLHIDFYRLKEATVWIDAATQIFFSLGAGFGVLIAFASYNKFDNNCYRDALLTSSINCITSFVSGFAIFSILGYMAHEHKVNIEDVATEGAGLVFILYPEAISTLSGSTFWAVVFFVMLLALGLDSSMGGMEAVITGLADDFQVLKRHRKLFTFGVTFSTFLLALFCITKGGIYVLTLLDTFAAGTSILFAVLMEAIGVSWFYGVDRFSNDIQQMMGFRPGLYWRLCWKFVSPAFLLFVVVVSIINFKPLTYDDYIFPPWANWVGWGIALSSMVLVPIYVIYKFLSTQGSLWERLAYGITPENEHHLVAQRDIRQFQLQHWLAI
Sequence of SERT (P31645 whole entry): as the sequence (P31645 whole entry) above
Sequence of DAT (Q01959 whole entry): as the sequence (Q01959 whole entry) above
Sequence of NET (P23975 whole entry): as the sequence (P23975 whole entry) above

CCCC(C(=O)c1cccc2ccccc12)N1CCCC1.Cl (stereo not drawn) [1-Naphyrone, 1-naphthalen-1-yl-2-pyrrolidin-1-ylpentan-1-one hydrochloride]
Ki (SERT): < 100 nM | DAT Ki [1]: submicromolar | Ki ([1]; DAT Ki): < 100 nM | Ki [1, 8]: 48 nM | Ki [1, 9]: 47.9 nM | NET Ki [2]: submicromolar | Ki [2, 10]: 536 nM | 5-HT2B receptor affinity Ki [3]: submicromolar | SERT Ki [4]: submicromolar | Ki [4, 11]: 352 nM

CC(N)Cc1ccc2occc2c1.Cl (stereo not drawn) [5-APB, 1-(benzofuran-5-yl)propan-2-amine hydrochloride]
5-HT2B agonist EC50 [5]: nanomolar | 5-HT2B agonist activity [5]: potent full agonists | Ki [1, 8]: 265 nM | Ki [1, 9]: 501 nM | DAT Ki [1, 12]: submicromolar | Ki [2, 10]: 180 nM | Ki [2, 13]: 468 nM | NET Ki [2, 12]: submicromolar | Ki [3]: < 100 nM and 14 nM | Ki (α2C adrenoceptors): < 100 nM | Ki (DAT): < 100 nM | Ki [4, 11]: 811 nM | Ki [4, 14]: 1660 nM | SERT Ki [4, 12]: submicromolar

NC1Cc2ccc(I)cc2C1 (stereo not drawn) [5-iod-2-aminoindane, 5-iodo-2,3-dihydro-1H-inden-2-amine hydrochloride]
Ki [1, 8]: 1590 nM | Ki [1, 9]: 2450 nM | Ki [2, 10]: 311 nM | Ki [2, 13]: 813 nM | Ki [4, 11]: 879 nM | Ki [4, 14]: 1780 nM

CC(N)Cc1ccc2ccoc2c1.Cl (stereo not drawn) [6-APB, 1-(benzofuran-6-yl)propan-2-amine hydrochloride]
5-HT2B agonist EC50 [5]: nanomolar | 5-HT2B agonist activity [5]: potent full agonists | Ki [1, 8]: 150 nM | Ki [1, 9]: 234 nM | Ki [2, 10]: 117 nM | Ki [2, 13]: 302 nM | Ki [3]: 3.7 nM | Ki (α2C adrenoceptors): 45 nM | Ki [4, 11]: 2700 nM | Ki [4, 14]: 5500 nM

CN[C@@H](C)Cc1ccc2c(c1)OCO2 [(+)-MDMA, 3,4-methylenedioxymethamphetamine, reference compound]
Ki ([1]; DAT Ki): 897 nM | Ki ([1]; DAT pKi (mean +/- S.E.M)): 2400 nM | Ki ([2]; NET Ki): 398 nM | Ki ([2]; NET pKi (mean +/- S.E.M)): 2000 nM | Ki ([4]; SERT Ki): 948 nM | Ki ([4]; SERT pKi (mean +/- S.E.M)): 2750 nM

CN[C@H](C)Cc1ccc2c(c1)OCO2 [(−)-MDMA, 3,4-methylenedioxymethamphetamine, reference compound]
Ki ([1]; DAT Ki): 2420 nM | Ki ([1]; DAT pKi (mean +/- S.E.M)): 6170 nM | Ki ([2]; NET Ki): 704 nM | Ki ([2]; NET pKi (mean +/- S.E.M)): 3160 nM | Ki ([4]; SERT Ki): 2310 nM

CN(C)CCC=C1c2ccccc2CCc2ccccc21 [Amitriptyline, reference compound]
Ki ([1]; DAT Ki): 4640 nM | Ki ([1]; DAT pKi (mean +/- S.E.M)): 9770 nM

Cc1ccc(C(=O)C(C)NCc2ccccc2)cc1 (stereo not drawn) [Benzedrone, 2-(benzylamino)-1-(4-methylphenyl)propan-1-one hydrochloride]
Ki [1, 8]: 1410 nM and 1490 nM | Ki [1, 9]: 2290 nM | Ki [2, 10]: 1220 nM | Ki [2, 13]: 3160 nM | Ki [4, 11]: > 10000 nM | Ki [4, 14]: 17800 nM

c1ccc(C(c2ccccc2)C2CCCCN2)cc1 (stereo not drawn) [Desoxypipradrol, 2-benzhydrylpiperidine hydrochloride]
Ki [1, 8]: 32 nM | Ki [1, 9]: 50.1 nM | Ki [2, 10]: 213 nM | Ki [2, 13]: 550 nM | Ki [4, 11]: > 10000 nM | Ki [4, 14]: 53700 nM

CCC(C)CC(C)N (stereo not drawn) [Dimethylamylamine, 4-methylhexan-2-amine hydrochloride]
Ki [1, 8]: > 10000 nM | Ki [1, 9]: 18200 nM | Ki [2, 10]: 649 nM | Ki [2, 13]: 1700 nM | Ki [4, 11]: > 10000 nM | Ki [4, 14]: 178000 nM

CNC(C)C(=O)c1ccc(C)cc1.Cl (stereo not drawn) [Mephedrone, 2-methylamino-1-(4-methylphenyl)propan-1-one hydrochloride]
Ki [1, 8]: 543 nM | Ki [1, 9]: 832 nM | concentration inhibiting serotonin uptake [6]: submicromolar | Ki [2, 10]: 511 nM | concentration inhibiting dopamine uptake [7]: submicromolar | 5-HT2B receptor affinity Ki [3]: submicromolar | Ki [4, 11]: 4940 nM | Ki [4, 14]: 10200 nM

CNC(C)Cc1cccs1.Cl (stereo not drawn) [Methiopropamine, methyl[(1-(2-thienyl)]propan-2-amine hydrochloride]
Ki ([1]; read-out: DAT Ki, inhibition of transporter uptake activity): 577 nM | Ki ([2]; read-out: NET Ki, inhibition of transporter uptake activity): 313 nM | Ki ([4]; read-out: SERT Ki, inhibition of transporter uptake activity): > 10000 nM

CNC(C)Cc1cccs1.Cl (stereo not drawn) [Methiopropamine]
DAT pKi (mean +/- S.E.M) [1, 15]: 6.05±0.07 | NET pKi (mean +/- S.E.M) [2, 15]: 6.09±0.07 | SERT pKi (mean +/- S.E.M) [4, 15]: 4.14±0.07

CC(NCc1ccccc1)C(=O)c1ccc2c(c1)OCO2 (stereo not drawn) [Methylenedioxy-N-benzylcathinone, 2-(benzylamino)-1-(3,4-methylenedioxyphenyl)propan-1-one]
Ki [1, 8]: 637 nM | Ki [1, 9]: 977 nM | Ki [2, 10]: 1630 nM | Ki [2, 13]: 4270 nM | Ki [4, 11]: > 10000 nM | Ki [4, 14]: 29500 nM

NC1Cc2cc3c(cc2C1)OCO3 [Methylenedioxy-aminoindane, 6,7-dihydro-5H-cyclopenta[f][1,3]benzodioxol-6-amine]
Ki [1, 8]: 4920 nM | Ki [1, 9]: 7590 nM | Ki [2, 10]: 641 nM | Ki [2, 13]: 1660 nM | Ki ([4]; SERT Ki): > 10000 nM | Ki ([4]; SERT pKi (mean +/- S.E.M)): 11700 nM

Cl.NC1CCc2cc3c(cc2C1)OCO3 (stereo not drawn) [Methylenedioxy-aminotetralin, 5,6,7,8-tetrahydrobenzo[f][1,3]benzodioxol-6-amine hydrochloride]
Ki [1, 8]: 4070 nM | Ki [1, 9]: 6310 nM | Ki [2, 10]: 894 nM | Ki [2, 13]: 2290 nM | 5-HT2B receptor affinity Ki [3]: submicromolar | Ki [4, 11]: 1100 nM | Ki [4, 14]: 2240 nM

CCNC(C)C(=O)c1ccc(C)cc1 (stereo not drawn) [Methylethcathinone, 2-ethylamino-1-(4-methylphenyl)propan-1-one hydrochloride]
Ki [1, 8]: 565 nM | Ki [1, 9]: 832 nM | Ki [2, 10]: 1670 nM | Ki [2, 13]: 4370 nM | Ki [4, 11]: 1800 nM | Ki [4, 14]: 3720 nM

CCCC(C(=O)c1ccc2ccccc2c1)N1CCCC1.Cl (stereo not drawn) [Naphyrone, 1-naphthalen-2-yl-2-pyrrolidin-1-ylpentan-1-one hydrochloride]
Ki (NET): < 100 nM | Ki (SERT): < 100 nM | DAT Ki [1]: submicromolar | Ki ([1]; DAT Ki): 53 nM | Ki ([1]; DAT pKi (mean +/- S.E.M)): 52.5 nM | NET Ki [2]: submicromolar | Ki ([2]; NET Ki): 200 nM | 5-HT2B receptor affinity Ki [3]: submicromolar | SERT Ki [4]: submicromolar | Ki ([4]; SERT Ki): 235 nM
